Tested on: BALB/c female mouse
Experiment: Immune response to individual peptide: mouse immunization, then indirect solid-phase immunoenzymatic assay (ELISA) of serum antibodies to peptide
Assay type: in vivo
Conditions: BALB/c mice, i.p. 100 μg peptide+Str-HRP with Freund's adjuvant; for Immunogenicity group: serum day 38, ELISA; for Overall ranking of antigenicity / Antigenicity compared to best ranking peptide (Average value calculated by removing outlier which exceeded 1 SD value) / Antigenicity compared to best ranking peptide (Median value): serum day 38, ELISA A450; for Antigenicity compared to best ranking peptide (Average value calculated by removing outlier which exceeded 1 SD value): average without outliers >1 SD

Row | Substance | Immunogenicity group | Overall ranking of antigenicity | Antigenicity compared to best ranking peptide (Average value calculated by removing outlier which exceeded 1 SD value) | Antigenicity compared to best ranking peptide (Median value)
1 | A-G-R-R-C-L-D-A-G (AGRRCLDAG; Mycobacterium Tuberculosis Synthetic Peptide) [SEQ ID 11, oligopeptide from MT Cytotoxin/Hemolysin] | intermediate immunogenicity | 6 | 16.5 | 34.2
2 | G-D-N-I-P-A-K-F-L-E-G-T-L-R-T (GDNIPAKFLEGTLRT; Mycobacterium Tuberculosis Synthetic Peptide) [SEQ ID 7, oligopeptide from MT Antigen 85 (Ag 85)] | intermediate immunogenicity | 7 | 11.6 | 73.5
3 | L-R-A-Q-D-D-Y-N-G-W-D-I (LRAQDDYNGWDI; Mycobacterium Tuberculosis Synthetic Peptide) [SEQ ID 4, oligopeptide from MT Antigen 85 (Ag 85)] | relatively strong immunogenicity | 2 | 1.4 | 1.0
4 | N-E-L-G-A-S-Q-A-I-D-L-L-K-G-V (NELGASQAIDLLKGV; Mycobacterium Tuberculosis Synthetic Peptide) [SEQ ID 9, oligopeptide from MT Exported Repetitive Protein (Erp)] | intermediate immunogenicity | 5 | 16.1 | 22.3
5 | S-D-P-A-W-K-R-N-D-P-M-V-Q-I-P-R-L (SDPAWKRNDPMVQIPRL; Mycobacterium Tuberculosis Synthetic Peptide) [SEQ ID 6, oligopeptide from MT Antigen 85 (Ag 85)] | relatively strong immunogenicity | 1 | 1.0 | 1.1
6 | S-M-G-R-D-I-K-V-Q-F-Q-G (SMGRDIKVQFQG; Mycobacterium Tuberculosis Synthetic Peptide) [SEQ ID 3, oligopeptide from MT Antigen 85 (Ag 85)] | intermediate immunogenicity | 11 | 26.5 | 35.8
7 | S-R-Y-N-E-L-V-E-R-G-E-A [SEQ ID 2] | intermediate immunogenicity | 4 | 10.6 | 15.0
8 | T-D-S-E-R-A-W-V-S-R-G-A (TDSERAWVSRGA; Mycobacterium Tuberculosis Synthetic Peptide) [SEQ ID 10, oligopeptide from MT Cytotoxin/Hemolysin] | intermediate immunogenicity | 10 | 27.6 | 24.5
9 | T-D-T-R-S-R-V-E-E-S-R-A-R-L [SEQ ID 1] | intermediate immunogenicity | 8 | 44.5 | 38.1
10 | T-Y-K-W-E-T-F-L-T-R-E-M-P-A (TYKWETFLTREMPA; Mycobacterium Tuberculosis Synthetic Peptide) [SEQ ID 5, oligopeptide from MT Antigen 85 (Ag 85)] | intermediate immunogenicity | 9 | 21.8 | 47.4
11 | V-Y-E-S-T-E-T-T-E-R-P-E-H-H-E-F-K-Q-A (VYESTETTERPEHHEFKQA; Mycobacterium Tuberculosis Synthetic Peptide) [SEQ ID 8, oligopeptide from MT Exported Repetitive Protein (Erp)] | relatively strong immunogenicity | 3 | 4.6 | 4.5

From patent publication US20120321656A1, “OLIGOPEPTIDES AND THEIR USE FOR TREATING INFECTIOUS DISEASES” (priority 2011, published 2012)
